From PMC3742170, “Enzymatic Properties of Populus α- and β-NAD-ME Recombinant Proteins” (International Journal of Molecular Sciences, 2013)

T1: PtNAD-ME1 (Populus trichocarpa, UniProt A0ACC0TE46)
T1 construct: gene POPTR_002G135300v4; mature form without mitochondrial signal peptide; pGEX-6p-3, N-terminal GST cut with PreScission; E. coli BL21; about 67 kDa on SDS-PAGE; EC 1.1.1.39
T1 sequence (A0ACC0TE46 34-627): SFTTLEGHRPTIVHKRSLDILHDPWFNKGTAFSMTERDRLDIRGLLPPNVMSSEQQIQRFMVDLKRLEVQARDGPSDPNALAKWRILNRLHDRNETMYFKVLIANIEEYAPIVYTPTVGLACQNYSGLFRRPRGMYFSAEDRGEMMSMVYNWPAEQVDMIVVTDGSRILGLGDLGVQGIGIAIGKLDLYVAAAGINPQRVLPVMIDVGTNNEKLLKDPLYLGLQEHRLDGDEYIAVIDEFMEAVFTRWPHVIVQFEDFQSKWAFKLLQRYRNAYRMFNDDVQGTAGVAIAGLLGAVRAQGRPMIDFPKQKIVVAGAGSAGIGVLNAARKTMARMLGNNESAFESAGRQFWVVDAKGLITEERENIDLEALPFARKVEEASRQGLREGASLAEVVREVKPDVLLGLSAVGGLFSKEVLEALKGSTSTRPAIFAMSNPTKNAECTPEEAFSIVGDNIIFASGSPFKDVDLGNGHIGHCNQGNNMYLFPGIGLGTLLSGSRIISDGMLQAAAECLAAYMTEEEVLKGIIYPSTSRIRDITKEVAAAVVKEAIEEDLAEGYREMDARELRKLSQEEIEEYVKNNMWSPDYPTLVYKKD

T2: PtNAD-ME2 (Populus trichocarpa, UniProt B9MVC4)
T2 construct: gene POPTR_014G043700; mature form without mitochondrial signal peptide; pGEX-6p-3, N-terminal GST cut with PreScission; E. coli BL21
T2 sequence (B9MVC4 36-627): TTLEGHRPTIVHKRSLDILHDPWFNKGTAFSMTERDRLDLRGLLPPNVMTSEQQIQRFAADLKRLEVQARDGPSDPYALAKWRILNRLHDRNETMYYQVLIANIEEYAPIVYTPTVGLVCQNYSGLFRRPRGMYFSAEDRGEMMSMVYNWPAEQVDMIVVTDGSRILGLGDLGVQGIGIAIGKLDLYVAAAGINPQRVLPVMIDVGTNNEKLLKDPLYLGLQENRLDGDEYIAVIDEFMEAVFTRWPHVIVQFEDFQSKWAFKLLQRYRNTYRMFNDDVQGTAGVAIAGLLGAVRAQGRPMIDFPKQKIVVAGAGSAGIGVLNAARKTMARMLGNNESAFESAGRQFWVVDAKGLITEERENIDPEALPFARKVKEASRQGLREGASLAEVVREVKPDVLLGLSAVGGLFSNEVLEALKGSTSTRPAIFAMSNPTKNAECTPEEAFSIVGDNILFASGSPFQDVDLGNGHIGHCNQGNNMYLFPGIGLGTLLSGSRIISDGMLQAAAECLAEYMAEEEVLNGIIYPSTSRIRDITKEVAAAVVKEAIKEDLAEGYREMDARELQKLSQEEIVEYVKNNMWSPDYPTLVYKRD

T3: PtNAD-ME4 (Populus trichocarpa, UniProt A0A2K1XS69)
T3 construct: gene POPTR_014G079900; mature form without mitochondrial signal peptide; pGEX-6p-3, N-terminal GST cut with PreScission; E. coli BL21
T3 sequence (A0A2K1XS69 22-607): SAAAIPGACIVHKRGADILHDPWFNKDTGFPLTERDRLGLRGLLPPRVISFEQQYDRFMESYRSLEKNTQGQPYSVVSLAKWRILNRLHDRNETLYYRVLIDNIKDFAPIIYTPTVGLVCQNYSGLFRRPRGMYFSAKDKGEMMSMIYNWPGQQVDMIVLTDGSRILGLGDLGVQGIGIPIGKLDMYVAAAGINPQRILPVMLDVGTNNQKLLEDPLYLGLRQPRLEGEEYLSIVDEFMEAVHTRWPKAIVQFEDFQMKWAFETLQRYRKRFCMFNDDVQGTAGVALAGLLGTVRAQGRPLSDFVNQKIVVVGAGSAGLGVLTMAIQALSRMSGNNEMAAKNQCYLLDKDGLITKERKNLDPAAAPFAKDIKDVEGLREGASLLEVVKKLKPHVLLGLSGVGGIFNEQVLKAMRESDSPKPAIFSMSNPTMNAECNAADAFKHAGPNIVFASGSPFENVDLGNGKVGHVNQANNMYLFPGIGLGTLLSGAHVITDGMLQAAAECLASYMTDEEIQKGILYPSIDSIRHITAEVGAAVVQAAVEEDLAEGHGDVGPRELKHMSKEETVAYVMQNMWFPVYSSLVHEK

T4: PtNAD-ME3 (Populus trichocarpa, UniProt B9GPX3)
T4 construct: gene POPTR_002G156000; mature form without mitochondrial signal peptide; pGEX-6p-3, N-terminal GST cut with PreScission; E. coli BL21; about 61 kDa on SDS-PAGE
T4 sequence (B9GPX3 23-607): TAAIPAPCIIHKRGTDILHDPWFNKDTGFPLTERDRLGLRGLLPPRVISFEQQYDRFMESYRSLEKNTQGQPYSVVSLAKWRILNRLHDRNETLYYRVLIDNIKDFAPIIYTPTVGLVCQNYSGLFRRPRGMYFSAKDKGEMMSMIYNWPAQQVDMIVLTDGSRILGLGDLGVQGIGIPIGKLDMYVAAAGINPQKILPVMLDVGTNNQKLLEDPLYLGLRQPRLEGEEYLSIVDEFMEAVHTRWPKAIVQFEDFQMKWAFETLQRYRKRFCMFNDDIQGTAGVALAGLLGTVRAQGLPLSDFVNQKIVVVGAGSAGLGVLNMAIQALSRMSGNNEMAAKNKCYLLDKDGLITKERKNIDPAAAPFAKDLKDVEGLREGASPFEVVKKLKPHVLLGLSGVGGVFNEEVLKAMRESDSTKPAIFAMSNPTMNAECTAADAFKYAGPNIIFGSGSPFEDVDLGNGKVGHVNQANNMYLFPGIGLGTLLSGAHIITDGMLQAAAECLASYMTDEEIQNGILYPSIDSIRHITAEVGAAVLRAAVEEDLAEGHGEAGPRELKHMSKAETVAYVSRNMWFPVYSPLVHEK

B1: PtNAD-ME3 (Populus trichocarpa) (protein)
chain: T4 sequence (B9GPX3 23-607)
notes: mature form without mitochondrial signal peptide; pGEX-6p-3, N-terminal GST cut with PreScission; E. coli BL21; about 61 kDa on SDS-PAGE

Columns and labels:
[1] = molecular target: T1, PtNAD-ME1; assay: inhibition of malate decarboxylation, NADH at […] nm; assay type: biochemical; conditions: inhibitor; nonsaturating malate, saturating NAD, optimum pH 7.2
[2] = molecular target: T2, PtNAD-ME2; assay: inhibition of malate decarboxylation, NADH at […] nm; assay type: biochemical; conditions: inhibitor; nonsaturating malate, saturating NAD, optimum pH 7.2
[3] = molecular target: T3, PtNAD-ME4; assay: inhibition of malate decarboxylation, NADH at […] nm; assay type: biochemical; conditions: inhibitor; nonsaturating malate, saturating NAD, optimum pH 7.4
[4] = molecular target: T4, PtNAD-ME3; assay: inhibition of malate decarboxylation, NADH at […] nm; assay type: biochemical; conditions: inhibitor; nonsaturating malate, saturating NAD, optimum pH 7.4
[5] = substrate: NC(=O)c1ccc[n+]([C@@H]2O[C@H](COP(=O)(O)OP(=O)(O)OC[C@H]3O[C@@H](n4cnc5c(N)ncnc54)[C@H](O)[C@@H]3O)[C@@H](O)[C@H]2O)c1; assay: purified protein; assay type: biochemical, Populus trichocarpa; conditions: saturating malate, 10 mM MnCl2, 150 mM Mes/NaOH, optimum pH 7.4
[6] = substrate: O=C(O)C[C@H](O)C(=O)O; assay: purified protein; assay type: biochemical, Populus trichocarpa; conditions: saturating NAD, 10 mM MnCl2, 150 mM Mes/NaOH, optimum pH 7.4

| Molecule | % activity [1] | % activity [2] | % activity [3] | % activity [4] | Km [5] [µM] | kcat [5] [s⁻¹] | kcat/Km [5] [M⁻¹ s⁻¹] | Km [6] [µM] |
| --- | --- | --- | --- | --- | --- | --- | --- | --- |
| O=C(O)CC(O)(CC(=O)O)C(=O)O [citrate] | OAA and citrate inhibited the activities of all | OAA and citrate inhibited the activities of all | OAA and citrate inhibited the activities of all | OAA and citrate inhibited the activities of all |  |  |  |  |
| O=C(O)CC(=O)C(=O)O [oxalacetate] | OAA and citrate inhibited the activities of all | OAA and citrate inhibited the activities of all | OAA and citrate inhibited the activities of all | OAA and citrate inhibited the activities of all |  |  |  |  |
| B1 |  |  |  |  | 450 | 1.3 | 2900 | 1300 |
